Source: paper PMC8467962, “Design and Synthesis of Water-Soluble and Potent MMP-13 Inhibitors with Activity in Human Osteosarcoma Cells” (International Journal of Molecular Sciences, 2021)
Converted amounts (≈) assume the structure as drawn.

Key:
MMP-2 = target: T1, MMP-2 (Homo sapiens, UniProt P08253); test: MMP inhibition assay (MMP Inhibitor Profiling Kit, thiopeptide substrate), MMP-2; type: biochemical; settings: catalytic domain, 37 °C, pH 7.5
T1 construct: the catalytic domains of the corresponding MMP were incubated in triplicate; purchased Enzo Life Science International, Inc
Procedure: (§1) MMP activity measurements were performed using an MMP Inhibitor Profiling Kit purchased from Enzo Life Science International, Inc. (Farmingdale, NY, USA), and following the manufacturer’s protocol with slight modifications. Proteolytic activity was measured using a thiopeptide substrate (Ac-PLG-[2-mercapto-4-methylpentanoyl]-LG-OC2H5) where the MMP cleavage site peptide bond has been replaced by a thioester bond. Hydrolysis of this bond by MMPs produces a sulfhydryl group that reacts with DTNB to form 2-nitro-5-thiobenzoic acid, which was detected by its absorbance at 414 nm (microplate photometer 90 Thermo Scientific Multiscan FC).
Enzyme reactions were carried out at 37 °C in a 100 μL final volume of solutions, where the catalytic domains of the corresponding MMP were incubated in triplicate with at least seven concentrations of inhibitors. The assay buffer contained the following components: 50 mM HEPES, 10 mM CaCl2 95, 0.05% Brij-35, and 1 mM DTNB at pH 7.5. After addition of the substrate, the increase of absorbance was recorded in 1 min time intervals for 30 min. Data were plotted as OD versus time for each sample to obtain the reaction velocity (V) in OD per min. The percentage of residual activity for each compound was calculated using the following formula: % of remaining activity = (V in the presence of inhibitor/Vcontrol) × 100. An inhibitor, NNGH, was included as a prototypic control inhibitor. IC50 calculations in MMP-13 and MMP-2 for active compounds are shown in Supplementary Materials (Figure S9)
The concentration of the compound that provided 50% inhibition of enzymatic activity (IC50) was determined by using semi-logarithmic dose–response plots (Graph Pad Prism 5.0 for Windows, Graph Pad Software Inc., San Diego, CA, USA, 2007).

[1] = Thermodynamic solubility (shake flask method); type: physicochemical; settings: phosphate buffer, aqueous buffer, thermodynamic from solid; PBS pH 7.4, shake flask, room temperature; read-out: Experimental Water Solubility LogS (converted)
Procedure: The samples were sonicated for 10 min and shaken overnight at 800 rpm (FB15013 TopMix, Fischer Scientific, Waltham, MA, USA) at room temperature. A first phase separation of supernatant and undissolved solid was performed by centrifugation at 5000 rpm for 20 min (Biofuge primo R). The supernatant was then transferred into Eppendorf tubes for a second centrifugation. An adequate dilution was made using the particle-free supernatant and the concentration quantified by LC-HRMS using a 4-point calibration curve (Agilent 1260 Infinity II).
PART A. Calibration curves of compounds for solubility
9e, 10a-e), 4-points calibration curves were made for each compound. Calibrations curves were obtained using four different concentrations of the corresponding compound (0.1 mg/mL, 0.01 mg/mL, 0.001 mg/mL and 0.0001 mg/mL). All samples were prepared in DMSO and measured in a LC-HRMS (Agilent 1260 Infinity II).
Figure S1. Calibration curves of all active compounds (solubility studies) (1, 2, 9a, 9e, 10a-e) […]

MMP-13 = target: T2, MMP-13 (Homo sapiens, UniProt P45452); test: MMP inhibition assay (MMP Inhibitor Profiling Kit, thiopeptide substrate), MMP-13; type: biochemical; settings: catalytic domain, 37 °C, pH 7.5
T2 construct: the catalytic domains of the corresponding MMP were incubated in triplicate; purchased Enzo Life Science International, Inc
Procedure: as §1, with “Proteolytic activity was measured using a thiopeptide substrate (Ac-PLG-[2-mercapto-4-methylpentanoyl]-LG-OC2H5) where the MMP cleavage site peptide bond has been replaced by a thioester bond.” left out
The assay buffer contained the following components: 50 mM HEPES, 10 mM CaCl2 95, 0.05% Brij-35, and 1 mM DTNB at pH 7.5. After addition of the substrate, the increase of absorbance was recorded in 1 min time intervals for 30 min. Data were plotted as OD versus time for each sample to obtain the reaction velocity (V) in OD per min. The percentage of residual activity for each compound was calculated using the following formula: % of remaining activity = (V in the presence of inhibitor/Vcontrol) × 100. An inhibitor, NNGH, was included as a prototypic control inhibitor.

T1 sequence (P08253 110-446 limits assumed): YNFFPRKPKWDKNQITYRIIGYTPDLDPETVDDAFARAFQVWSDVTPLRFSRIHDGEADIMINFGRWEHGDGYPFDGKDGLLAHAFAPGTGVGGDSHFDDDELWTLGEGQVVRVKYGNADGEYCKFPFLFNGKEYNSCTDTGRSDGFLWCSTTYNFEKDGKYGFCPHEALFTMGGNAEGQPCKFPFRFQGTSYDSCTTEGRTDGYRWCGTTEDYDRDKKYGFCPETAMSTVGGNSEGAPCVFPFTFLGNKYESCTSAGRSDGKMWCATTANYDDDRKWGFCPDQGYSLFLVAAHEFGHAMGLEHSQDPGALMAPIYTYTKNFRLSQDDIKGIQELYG

IC50 (MMP-2) [nM]	solubility [1] [µM]	melting point	IC50 (MMP-13) [nM]	SMILES
17 ± 4	0.141 (≈ 0.124 µg/mL)	195 to 197 °C	61 ± 18	O=C(NO)[C@@H](Cc1ccccc1)NS(=O)(=O)c1ccc(-n2cc(CCN3C(=O)c4c(Br)c(Br)c(Br)c(Br)c4C3=O)nn2)cc1 [Compound 10c, (R)-N-hydroxy-3-phenyl-2-((4-(4-(2-(4,5,6,7-tetrabromo-1,3-dioxoisoindolin-2-yl)ethyl)-1H-1,2,3-triazol-1-yl)phenyl)sulfonamido)propenamide]
14 ± 7	2.29 (≈ 1.46 µg/mL)	104 °C (dec.)	–	O=C(NO)[C@@H](Cc1ccccc1)NS(=O)(=O)c1ccc(-n2cc(CCN3C(=O)c4ccc(Br)cc4C3=O)nn2)cc1 [Compound 10d, (R)-2-((4-(4-(2-(5-bromo-1,3-dioxoisoindolin-2-yl)ethyl)-1H-1,2,3-triazol-1-yl)phenyl)sulfonamido)-N-hydroxy-3-phenylpropanamide]
2.9 ± 1.1	8.32 (≈ 4.78 µg/mL)	143 to 145 °C	–	Cc1ccc2c(c1)C(=O)N(CCc1cn(-c3ccc(S(=O)(=O)N[C@H](Cc4ccccc4)C(=O)NO)cc3)nn1)C2=O [Compound 10e, (R)-N-hydroxy-2-((4-(4-(2-(5-methyl-1,3-dioxoisoindolin-2-yl)ethyl)-1H-1,2,3-triazol-1-yl)phenyl)sulfonamido)-3-phenylpropanamide]

More lines, now with the values behind:

SMILES	IC50 (MMP-2) [nM]	solubility [1] [µM]	melting point	IC50 (MMP-13) [nM]
O=C(NO)C1(S(=O)(=O)c2ccc(-n3cc(CCn4nc5ccccc5n4)nn3)cc2)CCOCC1 [Compound 9e, 4-((4-(4-(2-(2H-benzo[d][1–3]triazol-2-yl)ethyl)-1H-1,2,3-triazol-1-yl)phenyl)sulfonyl)-N-hydroxytetrahydro-2H-pyran-4-carboxamide]	10.3 ± 2.8	33.9 (≈ 16.9 µg/mL)	–	–
O=C(NO)[C@@H](Cc1ccccc1)NS(=O)(=O)c1ccc(-n2cc(CCN3C(=O)c4ccccc4C3=O)nn2)cc1 [Compound 10a, (R)-2-((4-(4-(2-(1,3-dioxoisoindolin-2-yl)ethyl)-1H-1,2,3-triazol-1-yl)phenyl)sulfonamido)-N-hydroxy-3-phenylpropanamide]	3.1 ± 0.9	2.69 (≈ 1.51 µg/mL)	177 °C (dec.)	–
O=C(NO)[C@@H](Cc1ccccc1)NS(=O)(=O)c1ccc(-n2cc(CCN3C(=O)c4cc(Br)c(Br)cc4C3=O)nn2)cc1 [Compound 10b, (R)-2-((4-(4-(2-(5,6-dibromo-1,3-dioxoisoindolin-2-yl)ethyl)-1H-1,2,3-triazol-1-yl)phenyl)sulfonamido)-N-hydroxy-3-phenylpropanamide]	15 ± 5	3.63 (≈ 2.61 µg/mL)	187 to 189 °C	46 ± 21
